These results are taken from US20070212366A1, “Use Of Mrp4-Inhibitors For The Treatment And/Or Prophylaxis Of Cardiovascular Diseases” (ERNST-MORITZ-ARNDT-UNIVERSITAT GREIFSWALD, priority 2003, published 2007).

For data set [1], the target named is T1, MRP4 (Homo sapiens, UniProt O15439).
T1 construct: Dense platelet vesicles (100 μg of protein) were incubated with [3H]ADP; from tissue; host or cells: platelets (crude membrane vesicles; dense granule fraction of a sucrose gradient)
T1 sequence (O15439 1-1325): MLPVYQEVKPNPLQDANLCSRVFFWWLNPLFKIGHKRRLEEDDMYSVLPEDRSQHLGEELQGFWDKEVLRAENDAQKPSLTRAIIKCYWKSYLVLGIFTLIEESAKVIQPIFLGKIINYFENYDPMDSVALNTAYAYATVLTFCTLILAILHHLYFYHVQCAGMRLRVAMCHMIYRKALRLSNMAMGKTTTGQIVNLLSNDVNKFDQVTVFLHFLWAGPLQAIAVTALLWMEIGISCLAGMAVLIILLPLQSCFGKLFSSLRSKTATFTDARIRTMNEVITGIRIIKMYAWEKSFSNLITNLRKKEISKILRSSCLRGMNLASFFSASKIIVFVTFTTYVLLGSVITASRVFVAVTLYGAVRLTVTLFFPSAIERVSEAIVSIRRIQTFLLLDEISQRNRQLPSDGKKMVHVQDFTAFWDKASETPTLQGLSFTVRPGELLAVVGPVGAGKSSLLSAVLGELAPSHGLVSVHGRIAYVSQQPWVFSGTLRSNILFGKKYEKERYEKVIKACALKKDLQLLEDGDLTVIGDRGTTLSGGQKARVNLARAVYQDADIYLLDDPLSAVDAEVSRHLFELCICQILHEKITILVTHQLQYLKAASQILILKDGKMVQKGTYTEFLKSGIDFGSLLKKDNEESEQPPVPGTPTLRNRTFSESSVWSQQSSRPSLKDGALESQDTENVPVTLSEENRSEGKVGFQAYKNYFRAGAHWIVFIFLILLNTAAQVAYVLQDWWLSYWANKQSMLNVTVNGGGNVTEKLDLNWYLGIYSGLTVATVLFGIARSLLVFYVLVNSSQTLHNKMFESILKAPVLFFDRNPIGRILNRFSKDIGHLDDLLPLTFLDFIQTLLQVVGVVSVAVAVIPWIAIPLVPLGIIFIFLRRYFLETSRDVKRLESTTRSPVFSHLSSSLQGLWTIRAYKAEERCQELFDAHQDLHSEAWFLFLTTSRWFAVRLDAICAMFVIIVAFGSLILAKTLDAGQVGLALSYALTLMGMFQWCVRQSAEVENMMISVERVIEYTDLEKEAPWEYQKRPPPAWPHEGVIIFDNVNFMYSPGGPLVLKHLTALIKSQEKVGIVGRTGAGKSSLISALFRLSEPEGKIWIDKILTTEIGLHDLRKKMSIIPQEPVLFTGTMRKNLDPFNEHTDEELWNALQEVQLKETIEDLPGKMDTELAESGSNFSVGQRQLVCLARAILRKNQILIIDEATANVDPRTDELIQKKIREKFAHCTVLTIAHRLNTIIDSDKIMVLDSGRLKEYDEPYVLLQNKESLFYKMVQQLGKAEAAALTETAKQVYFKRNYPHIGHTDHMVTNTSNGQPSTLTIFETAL
In words: Inhibition of vanadate-sensitive [3H]ADP transport in dense platelet granules (vesicle rapid filtration). It is filed as biochemical. The settings on record: for [^3H]ADP transport (% of control): dense platelet vesicles, [3H]ADP 1 μmol/l, 0.4 mmol/l ATP ± 1 mmol/l orthovanadate, 2 min, mean ± SD of 3; for vanadate-sensitive ADP accumulation in the dense granular fraction of the sucrose gradient: result in words, refers to Table 1. An excerpt:
In order to determine whether the observed difference in the [^3H]ADP uptake by the vesicles in the presence and absence of orthovanadate reflects a transmembrane movement rather than binding to the membrane surface, the influence of high osmolarity was investigated. […] In the presence of orthovanadate, 1 mol/l of sucrose only slightly influenced the [^3H]ADP association to the vesicles. […] Furthermore, the vanadate-sensitive ADP accumulation in the dense granular fraction of the sucrose gradient could be detected and was inhibited by dipyridamole, MK571 and cGMP (Table 1).
Transport of [^3H]ADP. An ATP-dependent transport of [3H]ADP (1 μmol/l) in the membrane vesicles was measured by rapid filtration, as is described for [^3H]cGMP, with the exception that the vesicles in incubation buffer supplemented with 0.4 mmol/l ATP, 10 mmol/l MgCl2 are incubated in the presence or absence of sodium orthovanadate (1 mmol/l). In order to investigate the effect of the osmolarity of the extra-vesicular medium, the vesicles were preincubated for 45 minutes at 4° C. in a 1 mol/l sucrose-containing buffer or in standard incubation buffer which contained 250 mmol/l of sucrose.
Dense platelet vesicles (100 μg of protein) were incubated with [3H]ADP (1 μmol/l) in the presence of 0.4 mmol/l of ATP or 0.4 mmol/l of ATP+1 mmol/l of orthovanadate for two minutes, and the difference in the vesicle-associated radioactivity was calculated. The compounds listed were added to the incubations with and without orthovanadate in the concentrations indicated. The difference is indicated as the percentage of the control (mean value+standard deviation of 3 determinations). The control value of the vanadate-sensitive [^3H]ADP transport in this experiment was […] of protein^−1 after 2 minutes.

Data set [2] concerns the target T1, MRP4. In words: [3H]ADP transport in crude platelet membrane vesicles. It is filed as biochemical. The settings on record: ATP 0.4 mmol/l plus 1 mM orthovanadate versus ATP alone; crude membranes. As for the experimental part:
In order to determine whether ADP can be a substrate for MRP4-mediated, ATP-dependent transport, the uptake of [3H]ADP (1 μM) in platelet membrane vesicles (crude membranes) in the presence of 0.4 mmol/l of ATP was measured over a period of 2 minutes. […] If ATP was replaced by 5′-AMP or the non-hydrolyzable ATP analog AMPPNP, which was customarily used in control incubations in order to calculate the ATP-dependent component of the transport, approximately a three to four-fold higher background binding of the [^3H]ADP to the membranes was observed, which increased only slightly with time (not shown). […] In order to show the ATP dependence and simultaneously to ensure identical initial ADP concentrations, the transport was measured in the presence of ATP with or without 1 mM orthovanadate, an inhibitor of ATP hydrolysis. A time-dependent increase in the vesicle-associated radioactivity in the presence of ATP was observed, in spite of the fact that [^3H]ADP was diluted by simultaneous formation of unlabeled ADP. […]
Transport of [^3H]ADP. An ATP-dependent transport of [3H]ADP (1 μmol/l) in the membrane vesicles was measured by rapid filtration, as is described for [^3H]cGMP, with the exception that the vesicles in incubation buffer supplemented with 0.4 mmol/l ATP, 10 mmol/l MgCl2 are incubated in the presence or absence of sodium orthovanadate (1 mmol/l). […]

Take `OCCN(CCO)c1nc(N2CCCCC2)c2nc(N(CCO)CCO)nc(N3CCCCC3)c2n1` [Dipyridamole, dipyridamole]: the “[^3H]ADP transport (% of control)” value was 52.7 ± 5.2 % of control in data set [1] (10 μM substance) and 8.8 ± 0.4 % of control in data set [1] (100 μM substance). Further, the “vanadate-sensitive ADP accumulation in the dense granular fraction of the sucrose gradient” value in data set [1] was “inhibited”.
In the case of `CN(C)C(=O)CCSC(SCCC(=O)O)c1cccc(/C=C/c2ccc3ccc(Cl)cc3n2)c1` (centres unmarked) [MK571], in data set [1] (100 μM substance), the “[^3H]ADP transport (% of control)” value was 40.7 ± 3.9 % of control. For the same molecule, in data set [1], the “vanadate-sensitive ADP accumulation in the dense granular fraction of the sucrose gradient” value is “inhibited”.
For `Nc1nc2c(ncn2[C@@H]2O[C@@H]3COP(=O)(O)O[C@H]3[C@H]2O)c(=O)[nH]1` [cGMP, cyclic GMP], in that order: 28.7 ± 2.3 % of control and “inhibited”.
As for `[Na+].[Na+].[Na+].[O]=[V]([O-])([O-])[O-]` [orthovanadate, sodium orthovanadate], the “vesicle-associated radioactivity ([3H]ADP)” value in data set [2] is listed as “significantly reduced”.
